Results on eleven compounds are retold here after patent US20090062294A1, “HETEROARYL-SUBSTITUTED UREA MODULATORS OF FATTY ACID AMIDE HYDROLASE” (priority 2007, published 2009).

In one assay the target is T1, FAAH (Homo sapiens, UniProt O00519).
T1 sequence (O00519 1-579): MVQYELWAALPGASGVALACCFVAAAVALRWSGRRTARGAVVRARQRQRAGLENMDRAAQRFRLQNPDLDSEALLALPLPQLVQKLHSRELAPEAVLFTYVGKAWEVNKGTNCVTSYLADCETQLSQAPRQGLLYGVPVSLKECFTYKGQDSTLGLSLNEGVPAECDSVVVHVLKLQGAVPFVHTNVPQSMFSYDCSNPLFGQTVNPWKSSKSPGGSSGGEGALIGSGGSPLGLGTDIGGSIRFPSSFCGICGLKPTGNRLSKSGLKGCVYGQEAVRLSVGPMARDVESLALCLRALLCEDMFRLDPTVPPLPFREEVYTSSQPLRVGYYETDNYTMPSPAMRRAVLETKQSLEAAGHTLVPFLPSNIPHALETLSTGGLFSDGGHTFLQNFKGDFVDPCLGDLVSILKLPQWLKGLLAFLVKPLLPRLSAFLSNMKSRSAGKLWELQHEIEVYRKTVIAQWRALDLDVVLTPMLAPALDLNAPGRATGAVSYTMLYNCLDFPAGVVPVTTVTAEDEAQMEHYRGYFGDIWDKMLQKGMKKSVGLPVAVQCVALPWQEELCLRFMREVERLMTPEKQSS
Nature of the assay: Assay Method 1: FAAH assay, 3H-anandamide hydrolysis in homogenate of T84 cells or SK-N-MC cells transfected with human FAAH. In kind it is biochemical. The following applies: average of results, > = solubility limit or highest concentration tested. Put shortly:
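Homogenates of T84 cells or of SK-N-MC cells stably transfected with human FAAH (G418-selected) were prepared in pH 9 Tris/EDTA/glycerol/Triton buffer. They were incubated with compound and 80 nM final ^3H-anandamide for 1 h at rt. Released ^3H-ethanolamine was separated on activated charcoal and counted by scintillation.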

In another assay the target is T2, rat FAAH (Rattus norvegicus, UniProt P97612).
T2 sequence (P97612 1-579): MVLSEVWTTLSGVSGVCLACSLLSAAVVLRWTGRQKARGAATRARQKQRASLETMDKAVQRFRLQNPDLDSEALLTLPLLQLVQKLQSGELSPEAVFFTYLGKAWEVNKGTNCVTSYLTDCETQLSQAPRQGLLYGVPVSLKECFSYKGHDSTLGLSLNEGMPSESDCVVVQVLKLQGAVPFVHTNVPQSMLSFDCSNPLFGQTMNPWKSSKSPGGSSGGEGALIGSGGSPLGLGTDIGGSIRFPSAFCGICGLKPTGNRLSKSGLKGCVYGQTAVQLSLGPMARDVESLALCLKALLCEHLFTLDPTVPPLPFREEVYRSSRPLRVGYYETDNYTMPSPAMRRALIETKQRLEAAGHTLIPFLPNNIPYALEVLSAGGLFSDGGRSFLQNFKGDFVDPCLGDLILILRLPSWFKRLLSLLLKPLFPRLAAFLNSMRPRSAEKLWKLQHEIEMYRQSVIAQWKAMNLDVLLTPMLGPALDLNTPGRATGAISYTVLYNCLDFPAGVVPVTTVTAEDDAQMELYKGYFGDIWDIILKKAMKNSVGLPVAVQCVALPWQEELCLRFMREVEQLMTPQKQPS
As to the kind of experiment: Assay Method 2: FAAH assay, 3H-anandamide hydrolysis in homogenate of SK-N-MC cells transfected with rat FAAH. Format: biochemical. The following applies: average of results, > = solubility limit or highest concentration tested. A digest of the protocol:
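Homogenate of SK-N-MC cells stably transfected with rat FAAH cDNA (G418-selected clones) in pH 9 Tris/EDTA/glycerol/Triton buffer. Incubated with compound and 80 nM final [3H]-anandamide for 1 h at rt. Released [3H]-ethanolamine separated from substrate on activated charcoal filters and counted by scintillation.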

Counter-ions that a name gives are not always drawn.

For the compound `O=C(Nc1ccc(Cl)nn1)N1CCN(Cc2cccc(Oc3ccc(Cl)cc3)c2)CC1` [Example 42, 4-[3-(4-Chloro-phenoxy)-benzyl]-piperazine-1-carboxylic acid (6-chloro-pyridazin-3-yl)-amide trifluoroacetic acid salt], the results for the IC50 against FAAH and at rat FAAH were 311 nM and 18 nM, respectively.

Take `O=C(Nc1ccc(Cl)nn1)N1CCN(Cc2cccc(Oc3ccc(Cl)c(Cl)c3)c2)CC1` [Example 43, 4-[3-(3,4-Dichloro-phenoxy)-benzyl]-piperazine-1-carboxylic acid (6-chloro-pyridazin-3-yl)-amide trifluoroacetic acid salt]: the IC50 (as a rule, the concentration that inhibits the measured activity by half) at FAAH stood at 983 nM; at rat FAAH, 6 nM.

For `O=C(Nc1ccc(Cl)nn1)N1CCN(Cc2cccc(Oc3cccc(C(F)(F)F)c3)c2)CC1` [Example 44, 4-[3-(3-Trifluoromethyl-phenoxy)-benzyl]-piperazine-1-carboxylic acid (6-chloro-pyridazin-3-yl)-amide trifluoroacetic acid salt], the half-maximal inhibitory concentration (IC50) against FAAH amounted to 643 nM; against rat FAAH, 46 nM.

As to `O=C(Nc1ccc(Cl)nn1)N1CCN(Cc2ccc(F)c(Oc3ccccc3)c2)CC1` [Example 45, 4-(4-Fluoro-3-phenoxy-benzyl)-piperazine-1-carboxylic acid (6-chloro-pyridazin-3-yl)-amide trifluoroacetic acid salt], the half-maximal inhibitory concentration (IC50) on FAAH was 1500 nM; at rat FAAH, 410 nM.

For the compound `O=C(Nc1ccon1)N1CCN(Cc2cccc(Oc3ccc(Cl)c(Cl)c3)c2)CC1` [Example 47, 4-[3-(3,4-Dichloro-phenoxy)-benzyl]-piperazine-1-carboxylic acid isoxazol-3-ylamide trifluoroacetic acid salt], the half-inhibitory concentration (IC50) worked out at 1140 nM at FAAH and 66 nM on rat FAAH.

Regarding `O=C(Nc1ccon1)N1CCN(Cc2cccc(Oc3cccc(C(F)(F)F)c3)c2)CC1` [Example 48, 4-[3-(3-Trifluoromethyl-phenoxy)-benzyl]-piperazine-1-carboxylic acid isoxazol-3-ylamide trifluoroacetic acid salt], the IC50 stood at 627 nM against FAAH and 49 nM against rat FAAH.

With `O=C(Nc1ccon1)N1CCN(Cc2ccc(F)c(Oc3ccccc3)c2)CC1` [Example 49, 4-(4-Fluoro-3-phenoxy-benzyl)-piperazine-1-carboxylic acid isoxazol-3-ylamide trifluoroacetic acid salt], the IC50 on FAAH was determined as 2000 nM; on rat FAAH, 360 nM.

As to `O=C(Nc1noc2ccccc12)N1CCN(Cc2cccc(Oc3ccc(Cl)c(Cl)c3)c2)CC1` [Example 50, 4-[3-(3,4-Dichloro-phenoxy)-benzyl]-piperazine-1-carboxylic acid benzo[d]isoxazol-3-ylamide trifluoroacetic acid salt], the values for the half-inhibitory concentration (IC50) against FAAH and against rat FAAH were 42 nM and 18 nM, respectively.

Take `O=C(Nc1noc2ccccc12)N1CCN(Cc2cccc(Oc3cccc(C(F)(F)F)c3)c2)CC1` [Example 51, 4-[3-(3-Trifluoromethyl-phenoxy)-benzyl]-piperazine-1-carboxylic acid benzo[d]isoxazol-3-ylamide trifluoroacetic acid salt]: the IC50 was 28 nM against FAAH and 29 nM on rat FAAH.

As for `O=C(Nc1noc2ccccc12)N1CCN(Cc2cccc(OC(F)(F)F)c2)CC1` [Example 52, 4-(3-Trifluoromethoxy-benzyl)-piperazine-1-carboxylic acid benzo[d]isoxazol-3-ylamide trifluoroacetic acid salt], the 50% inhibitory concentration (IC50) against FAAH came out at 74 nM; against rat FAAH, 322 nM.

Consider `O=C(Nc1cc[nH]n1)N1CCN(Cc2cccc(Oc3ccc(Cl)c(Cl)c3)c2)CC1` [Example 54, 4-[3-(3,4-Dichloro-phenoxy)-benzyl]-piperazine-1-carboxylic acid (1H-pyrazol-3-yl)-amide trifluoroacetic acid salt], for which the IC50 on FAAH came to 370 nM; against rat FAAH, 50 nM.
